Assay results taken from patent US20190209576A1 (AI Therapeutics, Inc., priority 2014, published 2019).

Key:
Format in all cases: cell-based
SW620 cells = test: Cell viability (CellTiterGlo), single agent, 120 h; details: Homo sapiens, SW-620, 120 h; SW620, BRAF WT, 5 day assay
Description: (§1) For drug studies, HCT116, HT-29, RKO, HCT-15, SW1116, SW480 and SW620 cells were seeded at a density of 750, 8000, 300, 480, 1600, 2000, and 2000 cells per well, respectively, into 96 well plates in a final volume of 50 μL.
(§2) The apilimod used in these studies was apilimod dimesylate.
(§3) All drug dilutions were made up as a 2× stock and 50 μL added to appropriate wells. Cells were treated for 120 h before viability was assessed using CellTiterGlo® (Promega) where the relative luminescence of untreated cells was set to 100% viability and each drug concentration expressed as a percentage of untreated cells. EC50 values were determined using GraphPad Prism (GraphPad Software, Inc). Briefly, raw data was log transformed and then analyzed using nonlinear regression (curve fit) where the data were constrained (bottom=0, top=100).

RKO cells = test: Cell viability (CellTiterGlo), single agent, 120 h; details: Homo sapiens, BRAF Mutant (V600E), 5 day assay
Description: as §1, §2, §3

SW1116 cells = test: Cell viability (CellTiterGlo), single agent, 120 h; details: Homo sapiens, SW 1116, 120 h; SW1116, BRAF WT, 5 day assay
Description: as §1, §2, §3

SW480 cells = test: Cell viability (CellTiterGlo), single agent, 120 h; details: Homo sapiens, SW480, BRAF WT, 5 day assay
Description: as §1, §2, §3

HT-29 cells = test: Cell viability (CellTiterGlo), single agent, 120 h; details: Homo sapiens, HT-29, BRAF Mutant (V600E), 5 day assay
Description: as §1, §2, §3

HCT116 cells = test: Cell viability (CellTiterGlo), single agent, 120 h; details: Homo sapiens, HCT-116, 120 h; HCT116, BRAF WT, 5 day assay
Description: as §1, §2, §3

HCT-15 cells = test: Cell viability (CellTiterGlo), single agent, 120 h; details: Homo sapiens, HCT-15, BRAF WT, 5 day assay
Description: as §1, §2, §3

colon cancer cell lines = test: LAM-002 sensitivity (EC90) correlated with SNX10 expression; details: 10 point dose response
Description: Expression profiles were obtained from the public databases CCLE (Barretina, Caponigro, Stransky et al. The Cancer Cell Line Encyclopedia enables predictive modelling of anticancer drug sensitivity. Nature. 2012 Mar. 28; 483(7391):603-7) and COSMIC (Forbes SA1, Beare D2, Gunasekaran P2, et al. COSMIC: exploring the world's knowledge of somatic mutations in human cancer. Nucleic Acids Res. 2015 January; 43 (Database issue):D805-11). R statistical package (R Development Core Team (2008). R: A language and environment for statistical computing. R Foundation for Statistical Computing, Vienna, Austria. ISBN 3-900051-07-0) was used for the normalization of expression and the correlation analysis.
To determine LAM-002 sensitivity in colon cancer cell lines, the EC90 was calculated using a 10 point dose response as described above for EC50 determination. […] These findings support SNX10 expression as a predictive biomarker for LAM-002 sensitivity in colon cancer cells.

SMILES: Cc1cccc(/C=N/Nc2cc(N3CCOCC3)nc(OCCc3ccccn3)n2)c1 [Apilimod]
- EC50 (SW620 cells): 9 nM
- EC50 (RKO cells): 52 nM
- EC50 (SW1116 cells): 12 nM
- EC50 (SW480 cells): 24 nM
- EC50 (HT-29 cells): 19 nM
- EC50 (HCT116 cells): 10 nM
- EC50 (HCT-15 cells): 15 nM
- correlation between SNX10 expression and LAM-002 sensitivity (EC90) (colon cancer cell lines): colon cancer cells expressing higher levels of SNX10 are the most sensitive to LAM-002
